4 compounds from BindingDB's records for patent US11365204 (Union therapeutics A/S, 2022) can be followed below.

Sequence of Tumor necrosis factor (P01375 whole entry): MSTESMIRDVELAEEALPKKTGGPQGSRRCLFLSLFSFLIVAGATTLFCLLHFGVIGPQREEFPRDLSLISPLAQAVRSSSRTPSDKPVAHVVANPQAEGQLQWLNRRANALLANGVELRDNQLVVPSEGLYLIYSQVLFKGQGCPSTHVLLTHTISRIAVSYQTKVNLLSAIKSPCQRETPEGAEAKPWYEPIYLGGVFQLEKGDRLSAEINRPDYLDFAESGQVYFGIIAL

This experiment addresses Tumor necrosis factor (Homo sapiens, UniProt P01375). Nature of the experiment: TNF-alpha RELEASE. The method, then: Human peripheral blood mononuclear cells (PBMC) were isolated from fresh buffy coats by density centrifugation using lymphoprep tubes (Medinor). Frozen PBMC's were washed in serum free assay buffer (RPMI1640 with 25 mM HEPES, 1% pen/strep, […], 0.5% human serum albumin) and living cells counted. Lipopolysaccharide (1 microg/ml; SIGMA) was added to the cells which were then transferred to 384 well tissue culture plates (5×105 c/ml) containing titrated test compounds. The cells were incubated for 18 hours at 37° C. in serum free assay buffer and the level of TNFalpha in the supernatant was quantitated by AlphaLISA (PerkinElmer) by measuring fluorescence intensity at 615 nm.Results were expressed as IC50 values calculated from inhibition curves using as controls the secretion in LPS stimulated wells and the secretion in cells incubated with 10 microM of a PDE4 inhibitor reference compound.
Broadly, the IC50 is the concentration that gives 50% inhibition. A lower IC50 goes with higher potency. For the compound `CC(=O)N1CC[C@H](Nc2nc(N3CC(OC(=O)c4cnsc4)C3)nc3c2[S@+]([O-])CC3)C1` [US11365204, Example 72], the IC50 was < 0.1 µM.

As to `CC(=O)N1CC[C@H](Nc2nc(N3CC(OC(=O)c4cscn4)C3)nc3c2[S@+]([O-])CC3)C1` [US11365204, Example 73], the IC50 turned out to be 0.3 µM. With `CC(=O)N1CC[C@H](Nc2nc(N3CC(OC(=O)C4CCOCC4)C3)nc3c2[S@+]([O-])CC3)C1` [US11365204, Example 74] the figure was 0.3 µM; with `CC(=O)N1CCC(Nc2nc(N3CC(OC(=O)c4cscn4)C3)nc3c2[S+]([O-])CC3)CC1` (centres undefined) [US11365204, Example 76], > 0.5 µM.
